Publication PMC9929232, “On-demand male contraception via acute inhibition of soluble adenylyl cyclase” (Nature Communications, 2023)
Several values for one entry are separate records, joined by “and”; a condition that tells them apart may be missing. Equal values may be shown once.

Tests used:
[1] = biological target: T1, purified recombinant human sAC protein (Homo sapiens, UniProt Q96PN6); test: In vitro adenylyl cyclase activity assay (two-column method);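 on cyclase activity (%): 100% equals DMSO vehicle-treated control activity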; assay type: biochemical; conditions: for cyclase activity (%): Fig. 1c normalized replicates; for cyclase activity: Fig. 1c replicates
T1 construct: human sACt protein was incubated
T1 sequence (Q96PN6 1-469 limits assumed): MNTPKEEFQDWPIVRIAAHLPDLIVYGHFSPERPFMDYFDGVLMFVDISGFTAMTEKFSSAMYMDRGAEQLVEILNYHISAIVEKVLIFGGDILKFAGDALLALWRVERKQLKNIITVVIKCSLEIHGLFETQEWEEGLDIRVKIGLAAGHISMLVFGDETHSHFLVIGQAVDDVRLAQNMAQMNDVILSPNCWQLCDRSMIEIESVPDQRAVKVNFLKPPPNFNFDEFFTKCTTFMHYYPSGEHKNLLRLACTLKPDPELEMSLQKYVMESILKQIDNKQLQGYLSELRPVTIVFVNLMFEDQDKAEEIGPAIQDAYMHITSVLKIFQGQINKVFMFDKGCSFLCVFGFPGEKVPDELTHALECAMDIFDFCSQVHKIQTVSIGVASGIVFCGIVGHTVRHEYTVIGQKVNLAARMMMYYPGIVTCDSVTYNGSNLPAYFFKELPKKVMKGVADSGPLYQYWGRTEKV
Method: All in vitro adenylyl cyclase activity assays were performed via the “two-column” method measuring the conversion of [α-^32P] ATP into [^32P] cAMP[54], as previously described. Briefly, human sACt protein was incubated in buffer containing 50 mM Tris-HCl, pH 7.5, 4 mM MgCl2, 2 mM CaCl2, 1 mM ATP, 3 mM DTT, 40 mM NaHCO3 in the presence of the indicated concentrations of different sAC inhibitors or vehicle (1% DMSO).

human sperm [2] = test: cAMP generation in human sperm in vitro, incl. wash-out by dilution; assay type: cell-based; conditions: 30 minutes
Method: Samples of human semen were obtained from healthy volunteers with their prior written consent following a protocol approved by Weill Cornell Medicine’s Institutional Review Board (IRB 21-03023495). […] Semen was incubated for 30 min in a 37 °C incubator to liquefy. […] The tubes were incubated at a tilted angle of 45° at 37 °C for 60 min. Motile sperm were allowed to swim up into the HTF layer; immotile sperm and other cells or tissue debris remain in the ejaculate fraction. Up to 3 ml of the HTF layer was transferred to a fresh tube and washed twice in HTF by centrifugation (700 × g, 20 min). The supernatant was removed after the last centrifugation step and the sperm pellet was resuspended in 1 ml HTF. The purity and vitality of each sample was assessed via light microscopy. Sperm cell numbers were determined using a hemocytometer and adjusted to a concentration of 1 × 10^7 cells/ml.

human sperm [3] = test: Flagellar beat frequency of tethered human sperm; assay type: cell-based
Method: An inverted dark-field video microscope (IX73; Olympus) with a 10 x objective (mouse sperm) or a 20 x objective (human sperm) (UPLSAPO, NA 0.8; Olympus) was combined with a high-speed camera (ORCA Fusion; Hamamatsu). Dark-field videos were recorded with a frame rate of 200 Hz. The temperature of the heated stage was set to 37 °C (stage top incubator WSKMX; TOKAI HIT). The images were preprocessed with the ImageJ plugin SpermQ Preparator (Gaussian blur with sigma 0.5 px; subtract background method with radius 5 px) and analyzed using the ImageJ plugin SpermQ[57]. The beat frequency was determined from the highest peak in the frequency spectrum of the curvature time course, obtained by Fast Fourier Transform.

mouse sperm = test: Acrosome reaction assay, mouse sperm, zona pellucidae-evoked; assay type: cell-based; conditions: Fig. 2g replicates, 5 μM TDI-10229 or 10 nM TDI-11861
Method: Zonae pellucidae were isolated from female mice superovulated by intraperitoneal injection of 10 I.U. […] 3 days before the experiment. 14 h before oocyte isolation, mice were injected with 10 I.U. pregnant mare’s serum gonadotropin. Mice were sacrificed by cervical dislocation and oviducts were dissected. Cumulus-enclosed oocytes were separated from the oviducts and placed into TYH buffer containing 300 μg/ml hyaluronidase. After 15 min, cumulus-free oocytes were transferred into fresh buffer and washed twice. Zonae pellucidae and oocytes were separated by shear forces generated by expulsion from […] pasteur pipettes. Zona pellucidae were counted, transferred into fresh buffer, and heat-solubilized by incubation for 10 min at 65 °C.
Acrosome reaction was induced by incubating mouse sperm with 50 mouse solubilized zonae pellucidae for 15 min at 37 °C. Human sperm were incubated with 10 μM progesterone for 30 min at 37 °C. […] Samples were air-dried on microscope slides and fixed for 30 minutes in 100% ethanol at room temperature (RT). For acrosome staining, mouse and human sperm were incubated for 30 min in the dark with 5 μg/ml PNA-FITC or 5 μg/ml PSA-FITC, respectively, and counterstained with 2 μg/ml DAPI. After curing, slides were analyzed using a Zeiss LSM 880 Laser Scanning Confocal Microscope; images were captured with two photomultiplier and one Gallium Arsenide Phosphide detector using ZEN Imaging software. For each condition, at least 600 cells were analyzed using ImageJ 1.52.

epididymal mouse sperm = test: Ex vivo cAMP generation in epididymal sperm from inhibitor-treated male mice (oral or i.p.)
Method: For capacitation, sperm were incubated for 90 min in TYH containing 3 mg/ml BSA and 25 mM NaHCO3 in a 37 °C incubator. To control for the consequences of dilution during isolation of epididymal mouse sperm for ex vivo assays, we assessed the ability of bicarbonate to induce a prototypical pattern of tyrosine phosphorylation (pY) which is a widely used molecular hallmark of capacitation[53]. […] For experiments studying sperm from injected mice, ‘swim out’ was performed in 200 μl TYH, which corresponded to a 1:10 dilution from epididymis (20 μg cauda in 200 μl buffer). Capacitation-induced changes were assessed by adding 50 µl of ‘swim out’ sperm to increasing volumes of capacitating TYH buffer.
Intracellular cAMP levels were quantified using the Direct cAMP ELISA kit (Enzo) as above.

[4] = concentration (uM) -0.52288 [sic]
[5] = concentration (uM) -1.95424 [sic]
[6] = concentration (uM) -2.43136 [sic]
[7] = concentration (uM) -2.90848 [sic]
[8] = concentration (uM) -3.38561 [sic]
[9] = concentration (uM) printed 0.477121
[10] = concentration (uM) printed -1.47712
[11] = sheet Fig. 2c replicates, 5 μM TDI-10229 or 10 nM TDI-11861 present
[12] = sheet Fig. 2d replicates, 5 min preincubation in 5 μM TDI-10229 or 10 nM TDI-11861, diluted 1:100 into inhibitor-free media

Cc1c(Cc2ccccc2)c(-c2cc(Cl)nc(N)n2)nn1C [TDI-10229, reference compound]
cyclase activity (%) ([1]; concentration (uM) 0): 9.237% and 13.938% and 16.2416% and 14.0981% and 17.1651% and 16.2955% | cyclase activity (%) [1, 4]: 31.1405% and 32.9975% and 35.8708% and 34.2006% and 36.7402% and 35.3317% | cyclase activity (%) ([1]; concentration (uM) -1 [sic]): 63.6617% and 56.9124% and 60.5839% and 60.8807% and 64.5679% and 61.7683% | cyclase activity (%) [1, 5]: 97.3105% and 99.8737% and 91.8341% and 99.076% and 99.9562% and 83.5123% | cyclase activity (%) [1, 6]: 102.738% and 99.4561% and 103.778% and 98.5001% and 102.473% and 98.7264% | cyclase activity (%) [1, 7]: 99.2726% and 96.965% and 102.643% and 103.079% and 106.167% and 104.578% | cyclase activity (%) [1, 8]: 100% | cyclase activity (%) [1, 9]: 2.892% and 2.778% and 4.319% and 3.785% and 3.6574% and 3.195% | cyclase activity (%) ([1]; concentration (uM) printed 1): 0% | cyclase activity (%) [1, 10]: 87.3934% and 85.1243% and 83.28% and 86.7752% and 79.7419% and 79.6259% | cyclase activity ([1]; concentration (uM) 0): 4537 and 5556.7 and 5828.8 and 5224.3 and 5509.4 and 5355.1 | cyclase activity [1, 4]: 10764.2 and 10900.3 and 11166.7 and 10456.8 and 10112.3 and 9643.4 | cyclase activity ([1]; concentration (uM) -1 [sic]): 20009.8 and 17605.2 and 17887.1 and 17401.4 and 16655.7 and 15598.8 | cyclase activity [1, 5]: 29576 and 29650 and 26385.2 and 27343.3 and 24976.9 and 20497.1 | cyclase activity [1, 6]: 31119 and 29532.9 and 29633.3 and 27193.4 and 25568.8 and 23924.4 | cyclase activity [1, 7]: 30133.8 and 28834.5 and 29324.4 and 28385.2 and 26437.3 and 25242.7 | cyclase activity [1, 8]: 30340.6 and 29685.4 and 28605.8 and 27583.8 and 24987.2 and 24211.3 | cyclase activity [1, 9]: 2733.4 and 2427.8 and 2586.5 and 2539.8 and 2333.2 and 2403.9 | cyclase activity ([1]; concentration (uM) printed 1): 1911.1 and 1649 and 1412.1 and 1554.7 and 1473.2 and 1684.2 | cyclase activity [1, 10]: 26756.6 and 25514.8 and 24059 and 24141.5 and 20223.7 and 19621.6 | cAMP, capacitation media (human sperm [2]; [11]): 0.877 pmol/10^6 sperm and 0.67 pmol/10^6 sperm and 0.652 pmol/10^6 sperm and 0.78 pmol/10^6 sperm and 1.141 pmol/10^6 sperm and 0.8484 pmol/10^6 sperm and 1.0045 pmol/10^6 sperm | cAMP, non-capacitation media (human sperm [2]; [11]): 0.136 pmol/10^6 sperm and 0.12 pmol/10^6 sperm and 0.2 pmol/10^6 sperm and 0.75 pmol/10^6 sperm and 0.55 pmol/10^6 sperm and 0.7798 pmol/10^6 sperm and 0.493 pmol/10^6 sperm | cAMP, capacitation media (human sperm [2]; [12]): 1.0484 pmol/10^6 sperm and 0.9036 pmol/10^6 sperm and 1.37 pmol/10^6 sperm and 1.1895 pmol/10^6 sperm and 1.866 pmol/10^6 sperm | cAMP, non-capacitation media (human sperm [2]; [12]): 0.7172 pmol/10^6 sperm and 0.3596 pmol/10^6 sperm and 1.05 pmol/10^6 sperm and 0.7885 pmol/10^6 sperm and 1.206 pmol/10^6 sperm | Beat frequency, Basal (human sperm [3]; distal 5 µm of flagellum, 5 μM TDI-10229 or 10 nM TDI-11861, mean ± SEM): 12.2 ± 0.8 Hz | Beat frequency, + HCO3- (human sperm [3]; distal 5 µm, 25 mM NaHCO3, 5 μM TDI-10229 or 10 nM TDI-11861, mean ± SEM): 14.5 ± 0.6 Hz | Acrosome reacted (%), basal + db-cAMP/IBMX (mouse sperm; 5 mM db-cAMP/500 μM IBMX): 27.72% and 28.24% and 29.05% and 27.83% and 24.06% | Acrosome reacted (%), ZP (mouse sperm; 50 heat-solubilized zona pellucidae): 22.4% and 26.2% and 28.2% and 15.6% and 20% | Acrosome reacted (%), basal (mouse sperm; 90 min capacitating media): 20.3% and 33.8% and 26.7% and 16.5% and 28% | Acrosome reacted (%), ZP + db-cAMP/IBMX (mouse sperm; zona pellucidae, 5 mM db-cAMP/500 μM IBMX): 32% and 38.6% and 36.8% and 38% and 41.8% | bicarbonate-induced cAMP response, sperm directly isolated (epididymal mouse sperm; 50 mg/kg i.p.): prevented bicarbonate-induced increase in cAMP | bicarbonate-induced cAMP response, sperm measured directly (epididymal mouse sperm; 50 mg/kg oral, 1 hour, cauda sperm): no bicarbonate-induced increase in cAMP | normalized cAMP, diluted (epididymal mouse sperm; Fig. 3a replicates, 50 mg/kg oral gavage, 100-fold dilution into inhibitor-free media, capacitating relative to non-capacitated, 50 mg/kg): 2.085 and 1.745 and 2.432 and 2.093 and 1.3062 and 3.591 and 2.931 and 3.583 | normalized cAMP, non-diluted (epididymal mouse sperm; Fig. 3a replicates, 50 mg/kg oral gavage, capacitating relative to non-capacitated sperm of same mouse, 12 minutes, 50 mg/kg): 1.449 and 1.743 and 0.3 and 0.7791 and 0.9239 and 0.4534 and 0.1485 and 0.05415 | normalize cAMP, diluted (epididymal mouse sperm; Fig. 3c replicates, 50 mg/kg i.p., 100-fold dilution into inhibitor-free media, capacitating relative to non-capacitated, 50 mg/kg): 1.94 and 1.936 and 3.937 and 2.155 and 1.983 and 3.104 and 1.124 and 4 and 3.176 and 2.922 and 1.239 | normalize cAMP, non-diluted (epididymal mouse sperm; Fig. 3c replicates, 50 mg/kg i.p., capacitating relative to non-capacitated sperm of same mouse, 12 minutes, 50 mg/kg): 0.2801 and 0.5834 and 0.6474 and 0.2247 and 1.279 and 0.9423 and 1.0897 and 0.542 and 0.3506 and 1.1072 and 1.1267
